Data from patent publication EP4702986A1, “POLYPEPTIDE AND USE THEREOF” (Biocells (Beijing) Biotech Co., Ltd., priority 2023, dated 2024).
Entries after “also recorded” stand apart in the source; their conditions may differ. Read-outs that look alike come from different tables or passages of the source. Numbered stars: 1 amine (or outer) side, 2 acyl side, 3 side chain; on linkers, the order of the positions; unused ones are H or OH. Bridge positions count the residues as written; N and C are the ends. Side chains are listed from the residue outwards. Peptide text beside a SMILES is read from it. * marks the point of attachment. C18 diacid = O=C(O)CCCCCCCCCCCCCCCCC(=O)*; γGlu = O=C(O)[C@H](CCC(=O)[*:2])N[*:1]; Ethylenediamine = C(CN[*:2])N[*:1]; Palmitoyl = CCCCCCCCCCCCCCCC(=O)*; Fumaroyl = O=C(O)/C=C/C(=O)*; Suc = O=C(CCC(=O)[*:2])[*:1]; Lauroyl = CCCCCCCCCCCC(=O)*; AEEA = NCCOCCOCC(=O)O

Experiments:
male SD rats [1] = conditions: one animal per row, observed 48 hours
Experimental: In an experiment about acute toxicity of subcutaneous administration, male SD rats weighing 200-230 g were dosed in a range between 60 µg/Kg and 960 µg/Kg. Observation was made for 48 hours after subcutaneous administration. Toxic response and mortality of the rats were preliminarily observed, and time of death and doses without mortality were recorded. The level of acute toxicity of the polypeptides was preliminarily determined based on the doses without mortality.

[2] = Determination of half-lives of polypeptides (plasma, LC-MS); conditions: for half-life: C57 BL/6, mouse, plasma, iv; for AUClast 0-30 min: C57 BL/6 mice, dosage per compound 0.48, 0.96 or 1 mpk; for AUClast 0-30 min / T1/2: i.v.; for T1/2: Table 1, mice
human ETA receptor = target: T1, human ETA receptor (Homo sapiens, UniProt P25101); experiment: Selectivity of polypeptides on human ETA receptor (IP-One Gq kit, % of positive control ET1); type: cell-based; conditions: read-out: hETAR agonist activity, percentage of activity relative to ET1
T1 construct: expressed in transfected cells; host or cells: 293T-17 cells, transient transfection
T1 sequence (P25101 21-427): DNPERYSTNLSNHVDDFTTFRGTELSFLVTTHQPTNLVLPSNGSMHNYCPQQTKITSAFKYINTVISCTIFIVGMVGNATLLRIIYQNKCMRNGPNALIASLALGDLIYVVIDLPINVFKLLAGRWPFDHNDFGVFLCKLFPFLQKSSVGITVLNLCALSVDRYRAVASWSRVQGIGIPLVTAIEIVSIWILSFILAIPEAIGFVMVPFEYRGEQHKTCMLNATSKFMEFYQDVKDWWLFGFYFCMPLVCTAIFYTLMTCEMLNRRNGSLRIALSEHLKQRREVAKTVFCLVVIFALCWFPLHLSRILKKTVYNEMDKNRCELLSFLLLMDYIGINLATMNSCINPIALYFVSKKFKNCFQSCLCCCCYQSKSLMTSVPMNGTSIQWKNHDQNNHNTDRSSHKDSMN
Experimental: 293T-17 cells were seeded at a density of 650,000 cells per well in a 6-well plate and cultured overnight in an incubator at 37°C and 5% CO2. Afterward, the cells were transfected with an expression vector, PCDNA3.1-hETA which contained a human ETA receptor gene, at a plasmid concentration of 2.5 µg per well. The cells were further cultured for 48 hours, and green fluorescence expression was observed under a fluorescence microscope. The cells were then digested with trypsin and counted. The activity of compounds on the human ETA receptor was determined with the IP-One Gq kit from Cisbio Bioassays. The cells were suspended in Stim Buffer provided in the kit and the cell suspension was added to a 96-well detection plate at 7 µL cell suspension (containing 30,000 cells) per well. The polypeptides to be screened for activity (prepared according to the Preparation Example of the invention) and polypeptide human endothelin ET1 as positive control were dissolved in Stim B to be at a concentration of 2×, and 7 µL was added to the test cells, while 7 µL of PBS solution was added to the cells in the negative control wells. Human endothelin ET1 (ET1: […] (C1-C15,C3-C11)) set forth in SEQ ID No. 85 was used as the positive control polypeptide. The plate was sealed and incubated at 37°C for 1 h in a cell culture incubator. Detection wells, positive control wells, and PBS control wells were each added with 3 µL of IP1 d2 working solution and 3 µL of IP1 Tb cryptotate Antibody working solution. The plate was sealed and incubated in the dark at room temperature (25°C±5°C) for 1 h. The plate seal was removed, and the […] at 665 nm and 620 nm was measured with an ID5 microplate reader. The ratio of the acceptor emission signal to the donor emission signal, i.e., the value of (signal at 665 nm/signal at 620 nm)×10^4, was calculated for each well. With F3 representing the average value of values of signal at 665 nm/signal at 620 nm determined for the test sample at a specific concentration, F5 representing the average value of values of signal at 665 nm/signal at 620 nm determined for the positive control human endothelin ET1 at the same concentration, and T3 representing the average value of values of signal at 665 nm/signal at 620 nm determined for the PBS negative control, the percentage of activity of the test polypeptide sample relative to the positive control sample ET1 = (F3-T3)×100/(F5-T3) (see Table 6). hETA sequence (NCBI accession number L06622.1).

male SD rats [3] = experiment: in vivo; conditions: intravenous (tail vein) 240 µg/Kg; one animal per row; observed 24 hours
Experimental: In an experiment about acute toxicity of intravenous administration, male SD rats weighing 200-230 g were dosed in a range between 480 µg/Kg and 30 µg/Kg via tail vein injection in a descending order of dosage. […] Toxic response and mortality of the rats were preliminarily observed, and time of death and doses without mortality of the rats were recorded. The level of acute toxicity of the polypeptides was preliminarily determined based on the doses without mortality.

Structure (SMILES) | Observations of Animal Status (male SD rats [1]; subcutaneous 240 µg/Kg) | Observations of Animal Status (male SD rats [1]; subcutaneous 360 µg/Kg) | Observations of Animal Status (male SD rats [1]; subcutaneous 480 µg/Kg) | half-life [2] [min] | AUClast 0-30 min [2] [ng·h/mL] | T1/2 [2] | activation at 10 µM (human ETA receptor) [%] | activation at 100 µM (human ETA receptor) [%] | Observations of Animal Status (male SD rats [3])
CCCCCCCCCCCC(=O)N[C@@H](CCC(=O)O)C(=O)NCCOCCOCC(=O)NCCCC[C@H](NC(=O)[C@H](Cc1c[nH]cn1)NC(=O)[C@H](C)NC(=O)[C@H](Cc1ccccc1)NC(=O)[C@H](Cc1ccc(O)cc1)NC(=O)[C@@H](NC(=O)[C@H](C)NC(=O)[C@H](CCC(=O)O)NC(=O)[C@H](CCC(=O)O)NC(=O)[C@H](CC(=O)O)NC(=O)/C=C/C(=O)O)C(C)C)C(=O)N[C@@H](CC(=O)O)C(=O)N[C@H](C(=O)N[C@H](C(=O)N[C@@H](Cc1c[nH]c2ccccc12)C(=O)O)[C@@H](C)CC)C(C)C [BX238-Na] (Fumaroyl-DEEAVYFAHK([AEEA-Glu-Lauroyl])DVIW-OH) | No obvious abnormal reaction observed within 48 hours | No obvious abnormal reaction observed within 48 hours | Developed rapid breathing at 50 minutes after administration, showed no willingness to move, recovered 2 hours after administration; also recorded: Developed rapid breathing at 21 minutes after administration, died at 26 minutes after administration; also recorded: Developed rapid breathing at 10 minutes after administration, died at 47 minutes after administration; also recorded: Developed rapid breathing at 45 minutes after administration, showed no willingness to move, recovered 2 hours after administration; also recorded: Developed rapid breathing at 20 minutes after administration, died at 55 minutes after administration | – | – | – | – | – | –
CCCCCCCCCCCCCCCC(=O)NCCOCCOCC(=O)NCCOCCOCC(=O)N[C@@H](CCC(=O)NCCCC[C@H](NC(=O)[C@H](Cc1c[nH]cn1)NC(=O)[C@H](C)NC(=O)[C@H](Cc1ccccc1)NC(=O)[C@H](Cc1ccc(O)cc1)NC(=O)[C@@H](NC(=O)[C@H](C)NC(=O)[C@H](CCC(=O)O)NC(=O)[C@H](CCC(=O)O)NC(=O)[C@H](CC(=O)O)NC(=O)/C=C/C(=O)O)C(C)C)C(=O)N[C@@H](CC(=O)O)C(=O)N[C@H](C(=O)N[C@H](C(=O)N[C@@H](Cc1c[nH]c2ccccc12)C(=O)O)[C@@H](C)CC)[C@@H](C)CC)C(=O)O [BX-70] (Fumaroyl-DEEAVYFAHK([γGlu-AEEA-AEEA-Palmitoyl])DIIW-OH) | – | – | – | 41 | 1701 | T1/2=41min; | -15.8 | 13.5 | –
CCCCCCCCCCCC(=O)NCCOCCOCC(=O)NCCOCCOCC(=O)N[C@@H](CCC(=O)NCCCC[C@H](NC(=O)[C@H](Cc1c[nH]cn1)NC(=O)[C@H](C)NC(=O)[C@H](Cc1ccccc1)NC(=O)[C@H](Cc1ccc(O)cc1)NC(=O)[C@@H](NC(=O)[C@H](C)NC(=O)[C@H](CCC(=O)O)NC(=O)[C@H](CCC(=O)O)NC(=O)[C@H](CC(=O)O)NC(=O)/C=C/C(=O)O)C(C)C)C(=O)N[C@@H](CC(=O)O)C(=O)N[C@H](C(=O)N[C@H](C(=O)N[C@@H](Cc1c[nH]c2ccccc12)C(=O)O)[C@@H](C)CC)[C@@H](C)CC)C(=O)O [BX-71] (Fumaroyl-DEEAVYFAHK([γGlu-AEEA-AEEA-Lauroyl])DIIW-OH) | – | – | – | 23 | 2049 | T1/2=23min; | -9.66 | -9.49 | –
CC[C@H](C)[C@H](NC(=O)[C@@H](NC(=O)[C@H](CC(=O)O)NC(=O)[C@H](CC(C)C)NC(=O)[C@H](Cc1c[nH]cn1)NC(=O)[C@H](C)NC(=O)[C@H](Cc1ccccc1)NC(=O)[C@H](Cc1ccc(O)cc1)NC(=O)[C@@H]1CCCCNC(=O)CC[C@H](NC(=O)[C@H](CC(=O)O)NC(=O)CCC(=O)O)C(=O)N[C@@H](CCC(=O)O)C(=O)N[C@@H](C)C(=O)N1)C(C)C)C(=O)N[C@@H](Cc1c[nH]c2ccccc12)C(=O)O [BX-76] (Suc-DEEAKYFAHLDVIW-OH; lactam 2-5) | – | – | – | 3.6 | 250 | – | -20.9 | -7.56 | –
CC[C@H](C)[C@H](NC(=O)[C@H](CC(=O)O)NC(=O)[C@H](CCCCNC(=O)CC[C@H](NC(=O)COCCOCCNC(=O)COCCOCCNC(=O)CCCCCCCCCCCCCCCCC(=O)O)C(=O)O)NC(=O)[C@H](Cc1c[nH]cn1)NC(=O)[C@H](C)NC(=O)[C@H](Cc1ccccc1)NC(=O)[C@H](Cc1ccc(O)cc1)NC(=O)[C@@H](NC(=O)[C@H](C)NC(=O)[C@H](CCC(=O)O)NC(=O)[C@H](CCC(=O)O)NC(=O)[C@H](CC(=O)O)NC(=O)/C=C/C(=O)O)C(C)C)C(=O)N[C@H](C(=O)N[C@@H](Cc1c[nH]c2ccccc12)C(N)=O)[C@@H](C)CC [BX-86] (Fumaroyl-DEEAVYFAHK([γGlu-AEEA-AEEA-C18 diacid])DIIW-NH2) | – | – | – | 63 | 1146 | – | 18.3 | 10.4 | –
CC[C@H](C)[C@H](NC(=O)[C@H](CC(=O)O)NC(=O)[C@H](CC(C)C)NC(=O)[C@H](Cc1c[nH]cn1)NC(=O)[C@H](C)NC(=O)[C@H](Cc1ccccc1)NC(=O)[C@H](Cc1ccc(O)cc1)NC(=O)[C@@H](NC(=O)[C@H](C)NC(=O)[C@H](CCC(=O)O)NC(=O)[C@H](CCC(=O)O)NC(=O)[C@H](CC(=O)O)NC(=O)CCC(=O)NCCNC(=O)COCCOCCNC(=O)COCCOCCNC(=O)CC[C@H](NC(=O)CCCCCCCCCCCCCCCCC(=O)O)C(=O)O)C(C)C)C(=O)N[C@H](C(=O)N[C@@H](Cc1c[nH]c2ccccc12)C(=O)O)[C@@H](C)CC [BX-256] ({C18 diacid-γGlu-AEEA-AEEA-Ethylenediamine-Suc}-DEEAVYFAHLDIIW-OH) | – | – | – | – | – | – | – | – | Developed rapid breathing and limbs turned pale purple, and developed convulsions at 16 minutes after administration; died at 27 minutes after administration; also recorded: Developed rapid breathing, the limbs and face turned purple, and had weak limbs at 15 minutes after administration; died at 21 minutes after administration
